Values quoted from earlier work in patent US12100485B2, “Machine learning and molecular simulation based methods for enhancing binding and activity prediction” (The Board of Trustees of the Leland Stanford Junior …, priority 2018, dated 2024).

Test system: μOR

| Compound | Action |
| --- | --- |
| CN1CC[C@]23c4c5ccc(O)c4O[C@H]2C(=O)CC[C@@]3(O)[C@H]1C5 [oxymorphone] | agonist |
| CCCCCN[C@@]12C=CC(=O)[C@@H]3Oc4c(O)ccc5c4[C@@]31CCN(C)[C@@H]2C5 [pentamorphone] | agonist |
| CC(=O)OC1(c2ccccc2)CCN(CCc2ccccc2)CC1 [pepap] | agonist |
| CCOC(=O)C1(c2ccccc2)CCN(C)CC1 [pethidine] | agonist |
| CCC(=O)C(CC(C)N1CCOCC1)(c1ccccc1)c1ccccc1 (stereo not drawn) [phenadoxone] | agonist |
| CC1C2Cc3ccc(O)cc3C1(C)CCN2CCc1ccccc1 (stereo not drawn) [phenazocine] | agonist |
| CCOC(=O)C1(c2ccccc2)CCN(CCc2ccccc2)CC1 [pheneridine] | agonist |
| Oc1ccc2c(c1)[C@@]13CCCC[C@H]1[C@@H](C2)N(CCc1ccccc1)CC3 [phenomorphan] | agonist |
| CCOC(=O)C1(c2ccccc2)CCN(CCC(O)c2ccccc2)CC1 (stereo not drawn) [phenoperidine] | agonist |
| CCOC(=O)C1(c2ccccc2)CCN(CCCNc2ccccc2)CC1 [piminodine] | agonist |
| N#CC(CCN1CCC(C(N)=O)(N2CCCCC2)CC1)(c1ccccc1)c1ccccc1 [piritramide] | agonist |
| CCC(=O)OC1(c2ccccc2)CCN(C)C1C (stereo not drawn) [prodilidine] | agonist |
| CCC(=O)OC1(c2ccccc2)CCCN(C)CC1C (stereo not drawn) [proheptazine] | agonist |
| CC(C)OC(=O)C1(c2ccccc2)CCN(C)CC1 [properidine] | agonist |
| CN1CC[C@]2(C)c3cc(O)ccc3C[C@H]1C2(C)CCC(=O)CCC1CCCC1 (stereo partly drawn) [quadazocine] | Antagonists |
| CN1CCC23CCCCC2C1Cc1ccc(O)cc13 (stereo not drawn) [racemorphan] | agonist |
| NC(=O)c1ccc2c(c1O)[C@]13CCN(CC4CC4)[C@H](C2)[C@]1(O)CCC(=O)C3 [samidorphan] | Antagonists |
| COCCN1CC[C@]23c4c5ccc(O)c4O[C@H]2C(=O)CC[C@@]3(O)[C@H]1C5 [semorphone] | agonist |
| CCOC(=O)C1(c2ccccc2)CCC=CC1N(C)C (stereo not drawn) [tilidine] | agonist |
| CCC(=O)OC1(c2ccccc2)CC(C)N(C)CC1C (stereo not drawn) [trimeperidine] | agonist |
| endomorphin | agonist |
| endomorphin-1 | agonist |
| endomorphin-2 | agonist |
| hemorphin-4 | agonist |
